In patent publication US12145944B2, “Imidazopyrimidines as EED inhibitors and the use thereof” (THE REGENTS OF THE UNIVERSITY OF MICHIGAN, priority 2019, dated 2024):
Like-named read-outs stand apart in the source and are kept apart here.

How the values were obtained:
Pfeiffer cell line = test: Anti-proliferative activity, Pfeiffer cell line, 7 day treatment; format: cell-based; details: Homo sapiens, 168 h, 7 day treatment, read-out: Pfeiffer Cell line
Method: “N/A” stands for “not assessed”.
To assess the effect of PRC2 inhibition on cell growth, cells were seeded in 96-well cell culture plates at a density of 2 000-3 000 cells/well in 200 µL of culture medium, and treated with serially diluted compounds for 7 days at 37° C. in an atmosphere of 5% CO2. Cell growth was evaluated by a […] WST-8 assay (Dojindo Molecular Technologies) using a Tecan Infinite M1000 multimode microplate reader (Tecan, Morrisville, NC). The WST-8 reagent was added to the plate, incubated for 1-4 h, and read at 450 nm. The readings were normalized to the DMSO-treated cells, and the IC50 was calculated by nonlinear regression analysis using GraphPad Prism 6 software

[1] = system: KARPAS422 human B cell lymphoma cell; test: Cell proliferation, KARPAS422, 7 day treatment (WST-8); format: cell-based; details: Homo sapiens, KARPAS-422, 168 h, 7 day treatment, read-out: Karpas Cell line
Summary of the method: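 Read-out was WST-8 absorbance at 450 nm after 1-4 h with reagent, taken after 7-day compound treatment (serial dilutions, 37 °C, 5% CO2) of 2 000-3 000 KARPAS422 cells per well. IC50 fitted by nonlinear regression on DMSO-normalized values.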

[2] = anti-proliferative IC50 class, Pfeiffer cell line
[3] = anti-proliferative IC50 class, Karpas 422 cell line
[4] = anti-proliferative IC50, Pfeiffer cell line
[5] = anti-proliferative IC50, Karpas 422 cell line

O=C1c2ncn3c(NCc4c(F)ccc5c4CCO5)ncc(c23)-c2ccc(CC3COCCO3)nc2CN1CC(F)(F)F (centres unmarked) [E 49, 7-((1,4-dioxan-2-yl)methyl)-12-(((5-fluoro-2,3-dihydrobenzofuran-4-yl)methyl)amino)-4-(2,2,2-trifluoroethyl)-4,5-dihydro-3H-2,4,6,11,12a-pentaazabenzo[4,5]cycloocta[1,2,3-cd]inden-3-one]
IC50 (Pfeiffer cell line; [2]): < 10 nM
IC50 [1, 3]: < 10 nM

CC(C)(C)c1ccc2c(n1)CN(CC(F)(F)F)C(=O)c1ncn3c(NCc4c(F)ccc5c4CCO5)ncc-2c13 [E 50, 7-(tert-butyl)-12-(((5-fluoro-2,3-dihydrobenzofuran-4-yl)methyl)amino)-4-(2,2,2-trifluoroethyl)-4,5-dihydro-3H-2,4,6,11,12a-pentaazabenzo[4,5]cycloocta[1,2,3-cd]inden-3-one]
IC50 (Pfeiffer cell line; [2]): < 10 nM
IC50 [1, 3]: < 10 nM

O=C1c2ncn3c(NCc4c(F)ccc5c4CCO5)ncc(c23)-c2ccc(C3CCC3)nc2CN1CC(F)(F)F [E 52, 7-cyclobutyl-12-(((5-fluoro-2,3-dihydrobenzofuran-4-yl)methyl)amino)-4-(2,2,2-trifluoroethyl)-4,5-dihydro-3H-2,4,6,11,12a-pentaazabenzo[4,5]cycloocta[1,2,3-cd]inden-3-one]
IC50 (Pfeiffer cell line; [2]): < 10 nM
IC50 [1, 3]: < 10 nM

Cc1cccc(F)c1CNc1ncc2c3c(ncn13)COCc1ncccc1-2 [compound 1, N-(2-fluoro-6-methylbenzyl)-3H,5H-4-oxa-2,6,11,12a-tetraazabenzo[4,5]cycloocta[1,2,3-cd]inden-12-amine]
IC50 (Pfeiffer cell line; [4]): > 100 nM
IC50 [1, 5]: > 100 nM

CS(=O)(=O)c1ccc2c(c1)NC(=O)c1ncn3c(NCc4c(F)ccc5c4CCO5)ncc-2c13 [compound 5, 11-(((5-fluoro-2,3-dihydrobenzofuran-4-yl)methyl)amino)-6-(methylsulfonyl)-2,4,10,11a-tetraazadibenzo[cd,f]azulen-3(4H)-one]
IC50 (Pfeiffer cell line; [4]): 18.1 nM
IC50 [1, 5]: 32.2 nM

O=C1OCc2ccccc2-c2cnc(NCc3c(F)ccc4c3CCO4)n3cnc1c23 [compound 6, 12-(((5-fluoro-2,3-dihydrobenzofuran-4-yl)methyl)amino)-3H,5H-4-oxa-2,11,12a-triazabenzo[4,5]cycloocta[1,2,3-cd]inden-3-one]
IC50 (Pfeiffer cell line; [4]): 0.22 nM
IC50 [1, 5]: 1.98 nM

O=C1OCc2cc(F)ccc2-c2cnc(NCc3c(F)ccc4c3CCO4)n3cnc1c23 [compound 7, 7-fluoro-12-(((5-fluoro-2,3-dihydrobenzofuran-4-yl)methyl)amino)-3H,5H-4-oxa-2,11,12a-triazabenzo[4,5]cycloocta[1,2,3-cd]inden-3-one]
IC50 (Pfeiffer cell line; [4]): 0.68 nM
IC50 [1, 5]: 3.35 nM

O=C1OCc2cc(C(F)(F)F)ccc2-c2cnc(NCc3c(F)ccc4c3CCO4)n3cnc1c23 [compound 8, 12-(((5-fluoro-2,3-dihydrobenzofuran-4-yl)methyl)amino)-7-(trifluoromethyl)-3H,5H-4-oxa-2,11,12a-triazabenzo[4,5]cycloocta[1,2,3-cd]inden-3-one]
IC50 (Pfeiffer cell line; [4]): 0.57 nM
IC50 [1, 5]: 2.91 nM

O=C1OCc2cc(F)ccc2-c2cnc(NCc3cccc4c3CCO4)n3cnc1c23 [compound 9, 12-(((2,3-dihydrobenzofuran-4-yl)methyl)amino)-7-fluoro-3H,5H-4-oxa-2,11,12a-triazabenzo[4,5]cycloocta[1,2,3-cd]inden-3-one]
IC50 (Pfeiffer cell line; [4]): 1.81 nM
IC50 [1, 5]: 5.6 nM

O=C1OCc2ncccc2-c2cnc(NCc3c(F)ccc4occc34)n3cnc1c23 [compound 10, 12-(((5-fluorobenzofuran-4-yl)methyl)amino)-3H,5H-4-oxa-2,6,11,12a-tetraazabenzo[4,5]cycloocta[1,2,3-cd]inden-3-one]
IC50 (Pfeiffer cell line; [4]): 2.93 nM
IC50 [1, 5]: 15.8 nM

O=C1OCc2c(F)cccc2-c2cnc(NCc3c(F)ccc4c3CCO4)n3cnc1c23 [compound 11, 6-fluoro-12-(((5-fluoro-2,3-dihydrobenzofuran-4-yl)methyl)amino)-3H,5H-4-oxa-2,11,12a-triazabenzo[4,5]cycloocta[1,2,3-cd]inden-3-one]
IC50 (Pfeiffer cell line; [4]): 1.22 nM
IC50 [1, 5]: 4.61 nM

O=C1OCc2cc(C(F)(F)F)ncc2-c2cnc(NCc3c(F)ccc4c3CCO4)n3cnc1c23 [compound 13, 12-(((5-fluoro-2,3-dihydrobenzofuran-4-yl)methyl)amino)-7-(trifluoromethyl)-3H,5H-4-oxa-2,8,11,12a-tetraazabenzo[4,5]cycloocta[1,2,3-cd]inden-3-one]
IC50 (Pfeiffer cell line; [4]): 1.99 nM
IC50 [1, 5]: 9.03 nM

O=C1OCc2nc(C(F)(F)F)ccc2-c2cnc(NCc3c(F)ccc4c3CCO4)n3cnc1c23 [compound 14, 12-(((5-fluoro-2,3-dihydrobenzofuran-4-yl)methyl)amino)-7-(trifluoromethyl)-3H,5H-4-oxa-2,6,11,12a-tetraazabenzo[4,5]cycloocta[1,2,3-cd]inden-3-one]
IC50 (Pfeiffer cell line; [4]): 0.36 nM
IC50 [1, 5]: 3.49 nM

O=C1NCc2ccccc2-c2cnc(NCc3c(F)ccc4c3CCO4)n3cnc1c23 [compound 15, 12-(((5-fluoro-2,3-dihydrobenzofuran-4-yl)methyl)amino)-4,5-dihydro-3H-2,4,11,12a-tetraazabenzo[4,5]cycloocta[1,2,3-cd]inden-3-one]
IC50 (Pfeiffer cell line; [4]): 1.25 nM
IC50 [1, 5]: 4.36 nM

O=C1NCc2cc(F)ccc2-c2cnc(NCc3c(F)ccc4c3CCO4)n3cnc1c23 [compound 17, 7-fluoro-12-(((5-fluoro-2,3-dihydrobenzofuran-4-yl)methyl)amino)-4,5-dihydro-3H-2,4,11,12a-tetraazabenzo[4,5]cycloocta[1,2,3-cd]inden-3-one]
IC50 (Pfeiffer cell line; [4]): 4.17 nM
IC50 [1, 5]: 20.5 nM

Cc1ccc2c(n1)COC(=O)c1ncn3c(NCc4c(F)ccc5c4CCO5)ncc-2c13 [compound 18, 12-(((5-fluoro-2,3-dihydrobenzofuran-4-yl)methyl)amino)-7-methyl-3H,5H-4-oxa-2,6,11,12a-tetraazabenzo[4,5]cycloocta[1,2,3-cd]inden-3-one]
IC50 (Pfeiffer cell line; [4]): 0.73 nM
IC50 [1, 5]: 15.3 nM

O=C1NCc2cc(C(F)(F)F)ccc2-c2cnc(NCc3c(F)ccc4c3CCO4)n3cnc1c23 [compound 19, 12-(((5-fluoro-2,3-dihydrobenzofuran-4-yl)methyl)amino)-7-(trifluoromethyl)-4,5-dihydro-3H-2,4,11,12a-tetraazabenzo[4,5]cycloocta[1,2,3-cd]inden-3-one]
IC50 (Pfeiffer cell line; [4]): 0.79 nM
IC50 [1, 5]: 9.6 nM

O=C1NCc2c(F)cccc2-c2cnc(NCc3c(F)ccc4c3CCO4)n3cnc1c23 [compound 20, 6-fluoro-12-(((5-fluoro-2,3-dihydrobenzofuran-4-yl)methyl)amino)-4,5-dihydro-3H-2,4,11,12a-tetraazabenzo[4,5]cycloocta[1,2,3-cd]inden-3-one]
IC50 (Pfeiffer cell line; [4]): 0.9 nM
IC50 [1, 5]: 13.9 nM

Cc1ccc2c(n1)CNC(=O)c1ncn3c(NCc4c(F)ccc5c4CCO5)ncc-2c13 [compound 21, 12-(((5-fluoro-2,3-dihydrobenzofuran-4-yl)methyl)amino)-7-methyl-4,5-dihydro-3H-2,4,6,11,12a-pentaazabenzo[4,5]cycloocta[1,2,3-cd]inden-3-one]
IC50 (Pfeiffer cell line; [4]): 0.61 nM
IC50 [1, 5]: 14.9 nM

O=C1NCc2cc(C(F)(F)F)ncc2-c2cnc(NCc3c(F)ccc4c3CCO4)n3cnc1c23 [compound 22, 12-(((5-fluoro-2,3-dihydrobenzofuran-4-yl)methyl)amino)-7-(trifluoromethyl)-4,5-dihydro-3H-2,4,8,11,12a-pentaazabenzo[4,5]cycloocta[1,2,3-cd]inden-3-one]
IC50 (Pfeiffer cell line; [4]): 4.88 nM
IC50 [1, 5]: 45.6 nM

O=C1NCc2ccc(F)cc2-c2cnc(NCc3c(F)ccc4c3CCO4)n3cnc1c23 [compound 23, 8-fluoro-12-(((5-fluoro-2,3-dihydrobenzofuran-4-yl)methyl)amino)-4,5-dihydro-3H-2,4,11,12a-tetraazabenzo[4,5]cycloocta[1,2,3-cd]inden-3-one]
IC50 (Pfeiffer cell line; [4]): 9.95 nM
IC50 [1, 5]: 89.2 nM

O=C1OCc2ccc(C(F)(F)F)cc2-c2cnc(NCc3c(F)ccc4c3CCO4)n3cnc1c23 [compound 24, 12-(((5-fluoro-2,3-dihydrobenzofuran-4-yl)methyl)amino)-8-(trifluoromethyl)-3H,5H-4-oxa-2,11,12a-triazabenzo[4,5]cycloocta[1,2,3-cd]inden-3-one]
IC50 (Pfeiffer cell line; [4]): 38.4 nM
IC50 [1, 5]: > 100 nM

O=C1NCc2nc(C(F)(F)F)ccc2-c2cnc(NCc3c(F)ccc4c3CCO4)n3cnc1c23 [compound 25, 12-(((5-fluoro-2,3-dihydrobenzofuran-4-yl)methyl)amino)-7-(trifluoromethyl)-4,5-dihydro-3H-2,4,6,11,12a-pentaazabenzo[4,5]cycloocta[1,2,3-cd]inden-3-one]
IC50 (Pfeiffer cell line; [4]): 0.29 nM
IC50 [1, 5]: 16.5 nM

O=C1NCc2ccc(C(F)(F)F)cc2-c2cnc(NCc3c(F)ccc4c3CCO4)n3cnc1c23 [compound 26, 12-(((5-fluoro-2,3-dihydrobenzofuran-4-yl)methyl)amino)-8-(trifluoromethyl)-4,5-dihydro-3H-2,4,11,12a-tetraazabenzo[4,5]cycloocta[1,2,3-cd]inden-3-one]
IC50 (Pfeiffer cell line; [4]): 32.9 nM
IC50 [1, 5]: 41.4 nM

O=C1OCc2cc(C(F)(F)F)ccc2-c2cnc(NCc3cccc4c3OCO4)n3cnc1c23 [compound 27, 12-((benzo[d][1,3]dioxol-4-ylmethyl)amino)-7-(trifluoromethyl)-3H,5H-4-oxa-2,11,12a-triazabenzo[4,5]cycloocta[1,2,3-cd]inden-3-one]
IC50 (Pfeiffer cell line; [4]): > 100 nM
IC50 [1, 5]: > 100 nM
